Values quoted from earlier work, collected in US20080200512A1, “Hepatitis C virus polymerase inhibitors” (priority 2007, published 2008).

Test system: HCV
Conditions: monotherapy

## NC(=O)c1ncn([C@@H]2O[C@H](CO)[C@@H](O)[C@H]2O)n1 [ribavirin, 1-((2R,3R,4S,5R)-3,4-dihydroxy-5-hydroxymethyl-tetrahydro-furan-2-yl)-1H-[1,2,4]triazole-3-carboxylic acid amide]
  patients in whom serum amino transferase levels are reduced to normal: 40%
